Publication PMC8049054, “Systematic Assessment of Fragment Identification for Multitarget Drug Design” (Chemmedchem, 2021)

Tests used:
[1] = tested on: T1, soluble epoxide hydrolase (sEH); test: Differential scanning fluorimetry (DSF) screen on sEH; format: binding; conditions: 500 μM fragment, mean of duplicates
T1 construct: For the expression of sEH-H and sEH-Fl transformed E.coli BL21 (DE3) cells were grown in 5052; made in house; host or cells: E. coli BL21 (DE3)
Description: For the primary screen of this fragment library, we employed differential scanning fluorimetry (DSF, also known as thermal shift). DSF is generally applicable to a large panel of protein targets and provides a robust, low‐cost screening technology for fragment‐based approaches. ^[20] All five proteins of our interest are soluble and were recombinantly expressed in Escherichia coli. We performed an initial fragment screen on all five targets by DSF. The use of a uniform screening method for all targets ensured consistent data and provided the opportunity to identify false positive hits which interfered with the screening technology. The conditions of the DSF assay were optimized for the desired screening and validated with reference compounds (Table S1 in the Supporting Information). Compounds causing a positive thermal shift ΔT m≥1.0 °C were considered as active.
DSF measurement of the PDFL (single concentration of 500 μM, duplicates, 96‐well format) on the five proteins retrieved 19 fragment hits on sEH, 28 on LTA4H, 12 on 5‐LOX, 16 on RXRα, and 14 on FXR, respectively. Melting point distributions of the screening library for all five targets are depicted in Figure 2. Amongst the hits, three compounds (Table S2) gave a positive signal on all five proteins likely qualifying them as pan assay interference compounds (PAINS). ^[21] Fragments binding to multiple targets (Scheme 1) were identified for seven out of ten target combinations (Figure 2, Table 1). Among them, fragments 4, 6, 7, and 9 match previously identified privileged scaffolds for fatty acid mimetics. ^[14] […] Active ligands containing N‐phenylbenzamide 6 and the N‐phenylbenzylamine 7 have been described for four of the protein targets. Furthermore, indole, which has been characterized as a privileged heterocycle for fatty acid mimetics, ^[14] is present in fragments 5 and 10. Dual 5‐LOX/RXR ligand 1 was present in 5‐LOX inhibitors, while dual FXR/LTA4H modulator 3 is found among known FXR ligands. Fragments 2 (sEH/5‐LOX) and 8 (LTA4H/RXR) are novel scaffolds not appearing in known ligands of any of the five targets.
Figure S3: SDS page of the purified proteins (proteins RXRα and FXR after TEV cleavage) using a 14% polyacrylamide gel, which was stained with coomassi. Precision Plus Protein™ Unstained Protein Standard s (Bio-Rad Laboratories, Inc. ) was used […]
All experiments were performed as duplicates using MicroAmp fast 96 -well plates. Each plate contained 80 different compound wells and 16 DMSO control wells. First 0.8 µl of a 25 mM Preswick Library Fragment dilution in DMSO or pure DMSO were placed in each of the well (final concentration 500 µM). Then 39.2 µl of the master mi x (containing protein, Triton x -100, SYPRO® Orange Protein Gel Stain and buffer that corresponds to the tested protein) were added.
Table S4: Final concentrations in DSF experiments:
Protein Final concentrations under screening conditions […]
glycerol, 0.01% (W/V) Triton X-100, 2.05 % DMSO and 2.5x SYPRO® with a pH = 7 […]
The measurements were performed using a iCycler iQ™ Single -Color Real Time PCR device with a heat rate of 1 °C per min, an excitation wavelength of 490 nm and an emission wavelength of 570 nm. The first derivation calculated by MyiQ Op tical Software 1.0 was analyzed using Microsoft Office Excel 2013 by comparing the maxima. A shift of 1 °C (in case of 5 -LOX 0.9°C) or more compared to the DMSO control were assumed as potentially binding of the fragment.
(1 picture or pasted object on this page, not shown here)

[2] = tested on: sEH, LTA4H, 5‐LOX, FXR, RXR; test: Orthogonal (secondary) assays, summary statements over the targets
Procedure: For hit validation, we employed secondary assays with orthogonal readouts to confirm fragment activities. Biochemical activity assays were chosen for the enzymes sEH, LTA4H, and 5‐LOX. […] RXRα and FXR modulation was assessed in cell‐based hybrid reporter gene assays. All ten compounds were tested at a single concentration of 500 μM in the sEH and LTA4H activity assays and with a concentration of 100 μM on 5‐LOX, RXRα, and FXR. Fragments showing an inhibition greater than 50 % (sEH‐H and LTA4H) or greater than 70 % (5‐LOX) as well as the hits determined in the DSF experiments were further characterized in full concentration‐response curves between 0.1 and 1000 μM. […] As alternative cell‐free assay we employed isothermal titration calorimetry (ITC) to determine binding affinity of the fragments towards the LBDs of both nuclear receptors. ITC was performed with a protein concentration of 50 μM and compound concentrations of 250 μM. […]
% (5-LOX) as well as the hits determined in the DSF experiments were further measured with concentrations between 1000 µM and 0.1 µM (sEH-H and LTA4H) and between 300 µM and 1 µM (5-LOX). […] The 5-LOX activity assay was performed with one point per concentration and repeated 3 times Raw data was first analyzed in Microsoft Office Excel (2013), before IC50 curves were plotted and further analyzed using GraphPad Prism 7 and GraphPad Prism 8 for the shown graphs .
The eight approved drugs were measured in the orthogonal assay systems analogous to the fragments. […]
For the sEH-H and LTA4H, they were measured as triplicate in concentrations between 1000 µM and 1 µM and each measurement was repeated three times. For the 5-LOX they were measured as single point measurement in three different experiments with concentrations between 300 µM and 1 µM. […]
The sEH-H activity assay was performed adapted from Hahn et al.5 and Lukin et al.6. […] The Plate was measured every minute for 45 min. […]

DSF/ΔT m sEH [1]	SMILES	confirmation of dual DSF hits in the orthogonal experiments [2]
0.0±0.0 °C	Oc1ccc(Cc2ccccc2)cc1 [Compound 4]	–
1.0±0.0 °C	Oc1ccc(-c2ccc(F)cc2F)cc1 [Compound 9]	confirmed active
0.6±0.7 °C	Fc1ccc(-c2c[nH]c3ccccc23)cc1 [Compound 10]	confirmed active

More lines, now with the values behind:

SMILES	DSF/ΔT m sEH [1]	confirmation of dual DSF hits in the orthogonal experiments [2]
c1ccc(N2CCNCC2)nc1 [Compound 1]	0.0±0.0 °C	–
Cc1cc(=O)n(-c2ccc(C)c(C)c2)[nH]1 [Compound 2]	2.2±0.0 °C	confirmed active
CCCCOc1cc(C(=O)OC)ccc1N [Compound 3]	0.0±0.0 °C	–
Oc1ccc2cc[nH]c2c1 [Compound 5]	0.0±0.0 °C	–
Cc1ccccc1C(=O)Nc1ccccc1 [Compound 6]	2.0±0.0 °C	–
CCN(Cc1ccccc1)c1ccccc1 [Compound 7]	1.0±0.0 °C	–
